Tested on: histamine-induced ulcer formation
Assay: Inhibition of histamine-induced ulcer formation
Assay type: in vivo, Wister strain rats
Details: 20 mg/kg i.v., rats, histamine dihydrochloride 300 mg/kg i.p., 4 hours; for Ulcer coefficient (mean ± S.E.): sum of surface area of ulcer lesion
Experimental: Immediately thereafter, 300 mg/kg of histamine dihydrochloride was administered intraperitoneally (i.p.) F. Burcher et al; [Beith. Path. Anat., 81, 391 (1928)]. Four hours later, each animal was bled to death by decapitation, and the stomach was removed. 7.5 ml of physiological saline was infused into the removed stomach and partially fixed in 10% formalin for 10 minutes. Then, the stomach was incised along the greater curvature. The sum of the surface area of the ulcer lesion on the glandular part of the stomach was designated as the ulcer coefficient.

cyclic histidyllysine
Inhibition rate (%): 66.8%
Ulcer coefficient (mean ± S.E.): 14.9 ± 6.0

CN/C(=N/CCSCc1nc[nH]c1C)NC#N [Cimetidine]
Inhibition rate (%): 57.6%
Ulcer coefficient (mean ± S.E.): 19.1 ± 10.6

— patent US4637996A, “Antiulcer composition containing a dipeptide compound” (Nippon Zoki Pharmaceutical Co., Ltd., priority 1984, dated 1987)
